Read-outs that look alike come from different tables or passages of the source.
Columns and labels:
Assay type in all cases: cell-based, human
[1] = iCELLigence real-time cell analysis; settings: human, MCF-12A, relative to control, read-out: cell viability (% ± SEM)
Description: (§1) Therefore, compound 6j was applied in serial doses (2, 5, 10, 20, 50, and 100 μM) to MCF-7 cells and parallel to MCF-12A cells to determine the selectivity and safety. The treatments were performed 24 h after seeding the cells on system-specific biosensor-based plates. A total of 120 h of analyses were monitored, with cell viability measurements taken every 15 min. […] In addition, the viability percentage values for each dose in these periods were calculated and are summarized in Table 3 for MCF-7 and Table 4 for MCF-12A. […] In these treatments, cells were not killed dramatically after adding the highest two doses of 6j (100 and 50 μM); instead, they entered the stationary phase.
(§2) MCF-7 (Cat. no. HTB-22) (human estrogen receptor-positive breast cancer) and MCF-12A (Cat. no. CRL-10782) (human non-tumorigenic mammary epithelial) cell lines were obtained from the American Type Culture Collection (ATCC, Rockville, Maryland, USA). MCF-7 cells were maintained in Dulbecco’s modified Eagle’s medium (DMEM) (Biological Industries, Haemek, Israel) supplemented with 10% heat-inactivated fetal bovine serum (FBS) (Biowest, Nuaillé, France), 2 mM L-glutamine (Biological Industries, Haemek, Israel), 100 U/mL penicillin and 100 μg/mL streptomycin (Gibco, Waltham, MA, USA), and 2.5 μg/mL plasmocin (Invivogen, Toulouse, France) at 37 °C in a 5% CO2 humidified incubator. MCF-12A cells were cultured in a DMEM/F-12 Nutrient Mixture (Ham) (DMEM/F12 1:1 with HEPES and L-glutamine) (Gibco, Waltham, MA, USA) with 10% heat-inactivated FBS, 100 U/mL penicillin, 100 μg/mL streptomycin, and 10 μg/mL insulin (Humulin R, Lilly, Indianapolis, USA), 20 ng/mL epidermal growth factor (Abcam, Cambridge, UK), […] hydrocortisone (Dekort, Deva Ilac, Istanbul, Turkey), and 2.5 μg/mL plasmocin in a humidified atmosphere of 5% CO2 at 37 °C. The cells were routinely cultured in cell culture flasks and checked regularly under an inverted microscope. Cells reaching 80% confluency were passaged by treatment with 0.25% trypsin–EDTA. Total cell numbers were counted by the trypan blue dye exclusion method using a hemocytometer prior to the experiments.
(§3) The iCELLigence real-time cell analysis system was used to conduct a real-time and label-free examination of the activities of compound 6j on cells as we previously described.[62] In brief, following a background measurement with 200 μL of complete medium on iCELLigence E-plate L8, 100 μL of MCF-7 or MCF-12A cells was seeded at a density of 5.0 × 10^3 per well. During the 120 h monitoring, the system took impedance measurements via biosensors every 15 min. At the 24th h of incubation, the cells were treated with increasing concentrations of the 6j compound (2, 5, 10, 20, 50, and 100 μM) in duplicate. For cell culture experiments, compound 6j was dissolved in DMSO (Sigma, St. Louis, USA) at a stock concentration of 20 mM. For treatments, dilutions were prepared from 20 mM stock with a cell growth medium, with a final DMSO concentration of 0.1%. The medium containing 0.1% DMSO was also used as a negative control. […] Data were recorded by the iCELLigence software for 120 h and analyzed at the end of the study.

[2] = test system: MCF-7 cells; experiment: iCELLigence real-time cell analysis; settings: for viability at 2 µM / viability at 5 µM / viability at 10 µM / viability at 20 µM / viability at 50 µM / viability at 100 µM / IC50: MCF-7; for viability at 2 µM / viability at 5 µM / viability at 10 µM / viability at 20 µM / viability at 50 µM / viability at 100 µM: relative to control, read-out: cell viability (% ± SEM)
Description: as §1, §2, §3

[3] = test system: MCF-12A cells; experiment: iCELLigence real-time cell analysis; settings: for IC50: Homo sapiens, MCF-12A
Description: as §1, §2, §3

COc1cc(C=C2C(=O)Nc3ccc(Cl)cc32)ccc1OCc1ccccn1 (mixture of isomers) [6j]
viability at 48 h, 2 µM ([1]; MCF-12A cells (non-tumorigenic mammary epithelial), 2 μM, 48 h): 97.43 ± 0.02%
viability at 72 h, 2 µM ([1]; MCF-12A cells (non-tumorigenic mammary epithelial), 2 μM, 72 h): 97.43 ± 0.02%
viability at 96 h, 2 µM ([1]; MCF-12A cells (non-tumorigenic mammary epithelial), 2 μM, 96 h): 97.43 ± 0.02%
viability at 72 h, 5 µM ([1]; MCF-12A cells (non-tumorigenic mammary epithelial), 5 μM, 72 h): 92.74 ± 0.01%
viability at 96 h, 5 µM ([1]; MCF-12A cells (non-tumorigenic mammary epithelial), 5 μM, 96 h): 92.2%
viability at 72 h, 10 µM ([1]; MCF-12A cells (non-tumorigenic mammary epithelial), 10 μM, 72 h): 87.93 ± 0.02%
viability at 96 h, 10 µM ([1]; MCF-12A cells (non-tumorigenic mammary epithelial), 10 μM, 96 h): 87.93 ± 0.02%
viability at 72 h, 20 µM ([1]; MCF-12A cells (non-tumorigenic mammary epithelial), 20 μM, 72 h): 80.57 ± 0.01%
viability at 96 h, 20 µM ([1]; MCF-12A cells (non-tumorigenic mammary epithelial), 20 μM, 96 h): 80.57 ± 0.01%
viability at 72 h, 50 µM ([1]; MCF-12A cells (non-tumorigenic mammary epithelial), 50 μM, 72 h): 72.7 ± 0.01%
viability at 96 h, 50 µM ([1]; MCF-12A cells (non-tumorigenic mammary epithelial), 50 μM, 96 h): 72.54 ± 0.01%
viability at 72 h, 100 µM ([1]; MCF-12A cells (non-tumorigenic mammary epithelial), 100 μM, 72 h): 62.63 ± 0.01%
viability at 96 h, 100 µM ([1]; MCF-12A cells (non-tumorigenic mammary epithelial), 100 μM, 96 h): 61.3%
viability at 24 h, 2 µM ([1]; MCF-12A cells, 2 μM, 24 h): 98.7%
viability at 24 h, 5 µM ([1]; MCF-12A cells, 5 μM, 24 h): 99.06 ± 0.01%
viability at 48 h, 5 µM ([1]; MCF-12A cells, 5 μM, 48 h): 93.73 ± 0.02%
viability at 24 h, 10 µM ([1]; MCF-12A cells, 10 μM, 24 h): 97.22 ± 0.01%
viability at 48 h, 10 µM ([1]; MCF-12A cells, 10 μM, 48 h): 88.48 ± 0.02%
viability at 24 h, 20 µM ([1]; MCF-12A cells, 20 μM, 24 h): 93.6%
viability at 48 h, 20 µM ([1]; MCF-12A cells, 20 μM, 48 h): 81.96 ± 0.01%
viability at 24 h, 50 µM ([1]; MCF-12A cells, 50 μM, 24 h): 90.25 ± 0.01%
viability at 48 h, 50 µM ([1]; MCF-12A cells, 50 μM, 48 h): 77.81 ± 0.01%
viability at 24 h, 100 µM ([1]; MCF-12A cells, 100 μM, 24 h): 82%
viability at 48 h, 100 µM ([1]; MCF-12A cells, 100 μM, 48 h): 67.3%
inhibition of MCF-7 viability ([2]; 20 μM, compared with same concentration of tamoxifen): 30%
growth of MCF-7 cells ([2]; 100 and 50 μM, all time points): completely inhibited the growth
inhibition at 10 µM ([2]; Homo sapiens, MCF7, 10 μM, from growth curves): 25%
inhibition at 20 µM ([2]; Homo sapiens, MCF7, 20 μM, all time points, from growth curves): ~50%
viability at 2 µM ([2]; Homo sapiens, MCF7, 24 h): 91.38 ± 0.01%
viability at 2 µM ([2]; Homo sapiens, MCF7, 48 h): 91.38 ± 0.01%
viability at 2 µM ([2]; Homo sapiens, MCF7, 72 h): 91.38 ± 0.01%
viability at 2 µM ([2]; Homo sapiens, MCF7, 96 h): 90.67 ± 0.01%
viability at 5 µM ([2]; Homo sapiens, MCF7, 24 h): 84.83 ± 0.01%
viability at 5 µM ([2]; Homo sapiens, MCF7, 48 h): 83.01 ± 0.02%
viability at 5 µM ([2]; Homo sapiens, MCF7, 72 h): 83.01 ± 0.02%
viability at 5 µM ([2]; Homo sapiens, MCF7, 96 h): 82.54 ± 0.01%
viability at 10 µM ([2]; Homo sapiens, MCF7, 10 μM, 24 h): 80 ± 0.01%
viability at 10 µM ([2]; Homo sapiens, MCF7, 10 μM, 48 h): 76.59 ± 0.01%
viability at 10 µM ([2]; Homo sapiens, MCF7, 10 μM, 72 h): 76.59 ± 0.01%
viability at 10 µM ([2]; Homo sapiens, MCF7, 10 μM, 96 h): 74.2%
viability at 20 µM ([2]; Homo sapiens, MCF7, 20 μM, 24 h): 70.25 ± 0.02%
viability at 20 µM ([2]; Homo sapiens, MCF7, 20 μM, 48 h): 64.29 ± 0.02%
viability at 20 µM ([2]; Homo sapiens, MCF7, 20 μM, 72 h): 51.2 ± 0.01%
viability at 20 µM ([2]; Homo sapiens, MCF7, 20 μM, 96 h): 40.5%
viability at 50 µM ([2]; Homo sapiens, MCF7, 24 h): 62.7%
viability at 50 µM ([2]; Homo sapiens, MCF7, 48 h): 43.4%
viability at 50 µM ([2]; Homo sapiens, MCF7, 72 h): 28%
viability at 50 µM ([2]; Homo sapiens, MCF7, 96 h): 18.4%
viability at 100 µM ([2]; Homo sapiens, MCF7, 24 h): 57.46 ± 0.02%
viability at 100 µM ([2]; Homo sapiens, MCF7, 48 h): 33.25 ± 0.02%
viability at 100 µM ([2]; Homo sapiens, MCF7, 72 h): 20.25 ± 0.01%
viability at 100 µM ([2]; Homo sapiens, MCF7, 96 h): 13.4%
IC50 ([2]; Homo sapiens, MCF7, 24 h after treatment): 121 µM
IC50 ([2]; Homo sapiens, MCF7, 48 h after treatment): 16.2 µM
IC50 ([2]; Homo sapiens, MCF7, 72 h after treatment): 17 µM
IC50 ([2]; Homo sapiens, MCF7, 96 h after treatment): 16.1 µM
IC50 ([3]; 24 h after treatment): 506 µM
IC50 ([3]; 48 h after treatment): 81.9 µM
IC50 ([3]; 72 h after treatment): 312 µM
IC50 ([3]; 96 h after treatment): 207 µM
safer profile MCF-12A versus MCF-7 ([3]; at the 48th h, based on IC50 values): 5 times
effects on MCF-12A healthy breast cells ([3]; first 24 h of treatment, any dose (2-100 μM)): no effects
